Measurements: the supplement of paper PMC10307832

Columns and labels:
Assay in all cases: relative viability (nuclei count vs DMSO), 5 days (fraction); higher = more cells survive
NCI-H2087 = test system: NCI-H2087
Procedure, shortened: (§1)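 Cells from lung cancer lines were seeded into 1536-well plates and, one day later, dosed by pin tool. Treatments were either a single drug or a fixed dose of an anchor drug with five library-drug doses (not always all listed) in √10 steps. After 5 days, nuclei were stained in a one-step fixation (final 0.05% Triton X-100, 1% formaldehyde, 1 ug/ml Hoechst) and counted on 4× images, and relative viability is the treated-to-vehicle nuclei ratio, as the median of duplicate plates.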

HCC-827 = test system: HCC-827
Procedure, shortened: as §1

NCI-H1944 = test system: NCI-H1944
Procedure, shortened: as §1

NCI-H727 = test system: NCI-H727
Procedure, shortened: as §1

201T = test system: 201T
Procedure, shortened: as §1

NCI-H647 = test system: NCI-H647
Procedure, shortened: as §1

NCI-H322M = test system: NCI-H322M
Procedure, shortened: as §1

RERF-LC-KJ = test system: RERF-LC-KJ
Procedure, shortened: as §1

NCI-H2405 = test system: NCI-H2405
Procedure, shortened: as §1

LCLC-103H = test system: LCLC-103H
Procedure, shortened: as §1

NCI-H1437 = test system: NCI-H1437
Procedure, shortened: as §1

LCLC-97TM1 = test system: LCLC-97TM1
Procedure, shortened: as §1

NCI-H2228 = test system: NCI-H2228
Procedure, shortened: as §1

SK-LU-1 = test system: SK-LU-1
Procedure, shortened: as §1

LXF-289 = test system: LXF-289
Procedure, shortened: as §1

CAL-12T = test system: CAL-12T
Procedure, shortened: as §1

NCI-H1650 = test system: NCI-H1650
Procedure, shortened: as §1

BEN = test system: BEN
Procedure, shortened: as §1

NCI-H1395 = test system: NCI-H1395
Procedure, shortened: as §1

NCI-H1793 = test system: NCI-H1793
Procedure, shortened: as §1

NCI-H3122 = test system: NCI-H3122
Procedure, shortened: as §1

Structure (SMILES): Cc1sc2c(c1C)C(c1ccc(Cl)cc1)=N[C@@H](CC(=O)OC(C)(C)C)c1nnc(C)n1-2 [JQ1] + Cc1cc(Nc2cc(N3CCN(C)CC3)nc(Sc3ccc(NC(=O)C4CC4)cc3)n2)n[nH]1 [Tozasertib] (partner 0.1 µM)
- relative viability (NCI-H2087; first compound 0.04 µM): 0.253
- relative viability (NCI-H2087; first compound 0.1265 µM): 0.212
- relative viability (NCI-H2087; first compound 0.4 µM): 0.205
- relative viability (NCI-H2087; first compound 1.265 µM): 0.128
- relative viability (NCI-H2087; first compound 4 µM): 0.144
- relative viability (HCC-827; first compound 0.04 µM): 0.398
- relative viability (HCC-827; first compound 0.4 µM): 0.328
- relative viability (HCC-827; first compound 1.265 µM): 0.27
- relative viability (HCC-827; first compound 4 µM): 0.213
- relative viability (NCI-H1944; first compound 0.04 µM): 0.231
- relative viability (NCI-H1944; first compound 0.1265 µM): 0.225
- relative viability (NCI-H1944; first compound 0.4 µM): 0.227
- relative viability (NCI-H1944; first compound 1.265 µM): 0.208
- relative viability (NCI-H1944; first compound 4 µM): 0.185
- relative viability (NCI-H727; first compound 0.04 µM): 0.714
- relative viability (NCI-H727; first compound 0.1265 µM): 0.516
- relative viability (NCI-H727; first compound 0.4 µM): 0.459
- relative viability (NCI-H727; first compound 1.265 µM): 0.397
- relative viability (NCI-H727; first compound 4 µM): 0.387
- relative viability (201T; first compound 0.04 µM): 0.971
- relative viability (201T; first compound 0.1265 µM): 0.651
- relative viability (201T; first compound 0.4 µM): 0.613
- relative viability (201T; first compound 1.265 µM): 0.566
- relative viability (201T; first compound 4 µM): 0.383
- relative viability (NCI-H647; first compound 0.04 µM): 0.353
- relative viability (NCI-H647; first compound 0.1265 µM): 0.203
- relative viability (NCI-H647; first compound 0.4 µM): 0.202
- relative viability (NCI-H647; first compound 1.265 µM): 0.0994
- relative viability (NCI-H647; first compound 4 µM): 0.0445
- relative viability (NCI-H322M; first compound 0.04 µM): 0.445
- relative viability (NCI-H322M; first compound 0.1265 µM): 0.443
- relative viability (NCI-H322M; first compound 0.4 µM): 0.427
- relative viability (NCI-H322M; first compound 1.265 µM): 0.362
- relative viability (NCI-H322M; first compound 4 µM): 0.375
- relative viability (RERF-LC-KJ; first compound 0.04 µM): 0.496
- relative viability (RERF-LC-KJ; first compound 0.1265 µM): 0.299
- relative viability (RERF-LC-KJ; first compound 0.4 µM): 0.315
- relative viability (RERF-LC-KJ; first compound 1.265 µM): 0.222
- relative viability (RERF-LC-KJ; first compound 4 µM): 0.213
- relative viability (NCI-H2405; first compound 0.04 µM): 0.716
- relative viability (NCI-H2405; first compound 0.1265 µM): 0.712
- relative viability (NCI-H2405; first compound 0.4 µM): 0.723
- relative viability (NCI-H2405; first compound 1.265 µM): 0.584
- relative viability (NCI-H2405; first compound 4 µM): 0.498
- relative viability (LCLC-103H; first compound 0.04 µM): 0.429
- relative viability (LCLC-103H; first compound 0.1265 µM): 0.384
- relative viability (LCLC-103H; first compound 0.4 µM): 0.288
- relative viability (LCLC-103H; first compound 1.265 µM): 0.289
- relative viability (LCLC-103H; first compound 4 µM): 0.171
- relative viability (NCI-H1437; first compound 0.04 µM): 0.421
- relative viability (NCI-H1437; first compound 0.1265 µM): 0.357
- relative viability (NCI-H1437; first compound 0.4 µM): 0.357
- relative viability (NCI-H1437; first compound 1.265 µM): 0.224
- relative viability (NCI-H1437; first compound 4 µM): 0.174
- relative viability (LCLC-97TM1; first compound 0.04 µM): 0.197
- relative viability (LCLC-97TM1; first compound 0.1265 µM): 0.223
- relative viability (LCLC-97TM1; first compound 0.4 µM): 0.171
- relative viability (LCLC-97TM1; first compound 1.265 µM): 0.116
- relative viability (LCLC-97TM1; first compound 4 µM): 0.146
- relative viability (NCI-H2228; first compound 0.04 µM): 0.286
- relative viability (NCI-H2228; first compound 0.1265 µM): 0.284
- relative viability (NCI-H2228; first compound 0.4 µM): 0.207
- relative viability (NCI-H2228; first compound 1.265 µM): 0.126
- relative viability (NCI-H2228; first compound 4 µM): 0.08
- relative viability (SK-LU-1; first compound 0.04 µM): 0.282
- relative viability (SK-LU-1; first compound 0.1265 µM): 0.27
- relative viability (SK-LU-1; first compound 0.4 µM): 0.249
- relative viability (SK-LU-1; first compound 1.265 µM): 0.0708
- relative viability (SK-LU-1; first compound 4 µM): 0.0741
- relative viability (LXF-289; first compound 0.04 µM): 0.171
- relative viability (LXF-289; first compound 0.1265 µM): 0.134
- relative viability (LXF-289; first compound 0.4 µM): 0.0871
- relative viability (LXF-289; first compound 1.265 µM): 0.0699
- relative viability (LXF-289; first compound 4 µM): 0.0528
- relative viability (CAL-12T; first compound 0.04 µM): 0.274
- relative viability (CAL-12T; first compound 0.1265 µM): 0.238
- relative viability (CAL-12T; first compound 0.4 µM): 0.24
- relative viability (CAL-12T; first compound 1.265 µM): 0.132
- relative viability (CAL-12T; first compound 4 µM): 0.122
- relative viability (NCI-H1650; first compound 0.04 µM): 0.355
- relative viability (NCI-H1650; first compound 0.1265 µM): 0.289
- relative viability (NCI-H1650; first compound 0.4 µM): 0.284
- relative viability (NCI-H1650; first compound 1.265 µM): 0.124
- relative viability (NCI-H1650; first compound 4 µM): 0.135
- relative viability (BEN; first compound 0.04 µM): 0.57
- relative viability (BEN; first compound 0.1265 µM): 0.535
- relative viability (BEN; first compound 0.4 µM): 0.5
- relative viability (BEN; first compound 1.265 µM): 0.365
- relative viability (BEN; first compound 4 µM): 0.28
- relative viability (NCI-H1395; first compound 0.04 µM): 0.734
- relative viability (NCI-H1395; first compound 0.1265 µM): 0.681
- relative viability (NCI-H1395; first compound 0.4 µM): 0.652
- relative viability (NCI-H1395; first compound 1.265 µM): 0.495
- relative viability (NCI-H1395; first compound 4 µM): 0.419
- relative viability (NCI-H1793; first compound 0.04 µM): 0.355
- relative viability (NCI-H1793; first compound 0.1265 µM): 0.316
- relative viability (NCI-H1793; first compound 0.4 µM): 0.282
- relative viability (NCI-H1793; first compound 1.265 µM): 0.185
- relative viability (NCI-H1793; first compound 4 µM): 0.226
- relative viability (NCI-H3122; first compound 0.04 µM): 0.353
- relative viability (NCI-H3122; first compound 0.4 µM): 0.189
- relative viability (NCI-H3122; first compound 1.265 µM): 0.0696
- relative viability (NCI-H3122; first compound 4 µM): 0.0737
